Experimental data reported in patent US7355004B2, “Protein lipase inhibitor for flour and dough” (Danisco A/S, priority 2002, dated 2008).

Key:
[1] = test system: purified Lipase 3 from Aspergillus niger; test: p-Nitrophenol-acetate assay, determination of Km for purified Lipase 3; format: biochemical
Experimental: (§1) Lipase activity was determined colorimetrically using p-nitrophenyl acetate as a substrate. In a microtiter plate was added 10 μl of sample or blank then 250 μl of substrate was added (0.5 mg p-nitrophenyl acetate/ml of 50 mM phosphate buffer, pH 6.5). The microtiterplate was incubated for 5 min. at 30° C. and the absorbance at 405 nm was then read in a microplate reader.
A 60 ml sample of Grindlipase (Danisco A/S) a ferment of Aspergillus niger, pH 5.5 was first filtered through GF/B filter and then through 0.45 μm filter. The filtered sample was then desalted on a Superdex G25 SP column (430 ml, 22×5 cm) equilibrated in 20 mM triethanolamin, pH 7.3. Flow 5 ml/min. The total volume after desalting was 150 ml.
The desalted sample was applied to a Source Q30 anion exchange column (100 ml, 5×5 cm) equilibrated in 20 mM triethanolamine, pH 7.3. The column was washed with equilibration buffer until a stable baseline was obtained. Lipase activity was then eluted with a 420 ml linear gradient from 0 to 0.35 M NaCl in equilibration buffer, flow […]. Fractions of 10 ml were collected. […]
To the pool from anion exchange was added ammonium sulfate to 1 M and the sample was applied to a Source Phenyl HIC column (20 ml, 10 x 2 cm) equilibrated in 20 mM sodium-acetate (pH 5.5), 1M (NH4)2SO4. […] Fractions 33-41 were analyzed by SDS-PAGE and fraction 40 and 41 contained pure lipase. […]

commercial lipase #1646 = test: p-Nitrophenol-acetate assay, determination of Km for another commercial lipase (#1646); format: biochemical; settings: pH 6.5, 50 mM phosphate buffer, 30° C., 405 nm; substrate 0.1 to 0.75 mg/ml; fit to non-competitive kinetics not accepted
Experimental: as §1
Kinetic data were fitted to v=VmaxS/(Km+S) where Vmax is maximum velocity, S is substrate concentration, and Km is the concentration giving half maximal rate (Michaelis constant), using the EZ-FIT curve-fitting microcomputer program [Perrella, (1988) EZ-FIT: A practical curve-fitting microcomputer program for the analysis of enzyme kinetic data on IBM-PC compatible computers. Anal. Biochem. 174: 437-447]. To determine Ki the data were fitted to the formulas for non-competitive, competitive, un-competitive and the model showing the best fit (non-competitive) were used to determine Ki. The program uses the Nelder-Mead simplex optimization of initial guesses followed by Marquardt nonlinear regression algorithm for least squares optimization. Run's statistic is used to determine if the fitted curve goes through the data points or whether a systematic departure from the curve exists. The fitted parameter values and standard error are tested for significance by the Student t test.

Compound: CC(=O)Oc1ccc([N+](=O)[O-])cc1 [p-nitrophenyl acetate]
- Km for p-nitrophenyl acetate ([1]; pH 6.5, 50 mM phosphate buffer, 30° C., 405 nm, four levels of lipase inhibitor, fit to non-competitive model): 0.67 ± 0.04 mg/mL
- Km for lipase with respect to p-nitrophenyl acetate (in words) ([1]; under the conditions in the assay): higher than the maximum solubility for p-nitrophenyl acetate
- Km for p-nitrophenyl acetate (commercial lipase #1646): 2.0 ± 0.6 mg/mL
